EP0539470B1, “NEUROMUSCULAR BLOCKING AGENTS” (THE WELLCOME FOUNDATION LIMITED, priority 1990, dated 1992)

What was measured:
Type in all cases: in vivo
anterior tibialis = experiment: Neuromuscular blocking potency in anaesthetized cats (peroneal nerve stimulation, anterior tibialis twitch tension); conditions: intravenous (femoral vein), calculated from dose-response curves, mg/kg as the free base, based on the weight of the atracurium cation
Protocol: (§1) Mongrel male cats (Southeastern Laboratories Animal Farm), weighing 2.2-4.25kg, were anaesthetized with a mixture of pentobarbital sodium, 7mg/kg i.p., and alpha-chloralose, 80 mg/kg i.p. Adequate levels of anaesthesia were maintained with supplemental doses of alpha-chloralose administered intravenously as needed. The trachea was cannulated and the animals were ventilated with 20 ml/kg of room air via a Harvard Apparatus respiration pump adjusted to deliver 20 strokes/minute. Arterial blood pressure was measured via a cannula in the right femoral artery connected to a Statham P23 transducer. Heart rate was determined from the ECG using a Grass tachograph. […] Isometric […] of the nictitating membrane were recorded during a resting tension of 5 grams with a Grass FT.03 force displacement transducer and a Grass polygraph. […] Twitch tension in the anterior tibialis was recorded during a resting tension of 50 grams. […] Esophageal temperature was monitored with a Yellow Springs thermistor probe and core temperature maintained between 37° and 38°C with radiant heat. […] At the end of the experiments, cats were euthanatized with intravenously administered saturated KCl or pentobarbital sodium. b) Results The ED₉₅ value for neuromuscular blocking potency was calculated from dose-response curves. […]

vagus = experiment: Parasympathetic blockade in anaesthetized cats (inhibition of the response to vagus stimulation); conditions: i.v., ED₅₀ for inhibition of parasympathetic (vagus) nerve stimulation relative to neuromuscular ED₉₅
Protocol: as §1

[1] = system: cervical sympathetic nerve; experiment: Sympathetic blockade in anaesthetized cats (cervical sympathetic nerve stimulation, nictitating membrane contraction); conditions: i.v., ED₂₅ for inhibition of sympathetic nerve stimulation relative to neuromuscular ED₉₅
Protocol: as §1

Structure (SMILES)	CALC. * ED₉₅ (anterior tibialis)	RATIO 50% VAGUS INHIBITION vs. ED₉₅ (vagus)	RATIO 25% SYMPATHETIC INHIBITION vs. ED₉₅ [1]
COc1ccc(C[C@@H]2c3cc(OC)c(OC)cc3CC[N+]2(C)CCC(=O)OCCCCCOC(=O)CC[N+]2(C)CCc3cc(OC)c(OC)cc3[C@H]2Cc2ccc(OC)c(OC)c2)cc1OC.CS(=O)(=O)[O-].CS(=O)(=O)[O-] (relative stereo) [Compound A, 1R-cis,1'R-cis-2,2'-(3,11-Dioxo-4,10-dioxatridecamethylene)-bis-(1,2,3,4-tetrahydro-6,7-dimethoxy-2-methyl-1-veratrylisoquinolinium)methanesulphonate]	0.062 ± 0.008 mg/kg	27	60
COc1ccc(CC2c3cc(OC)c(OC)cc3CC[N+]2(C)CCC(=O)OCCCCCOC(=O)CC[N+]2(C)CCc3cc(OC)c(OC)cc3C2Cc2ccc(OC)c(OC)c2)cc1OC (stereo not drawn) [Atracurium besylate, 2,2'-(3,11-dioxo-4,10-dioxatridecylene)-bis-(1,2,3,4-tetrahydro-6,7-dimethoxy-2-methyl-1-veratrylisoquinolinium dibesylate]	0.092 ± 0.010 mg/kg	17	34
